The subject of data set [1] is ARCaPM orthotopic tumor metastases. As to the kind of experiment: Detection of metastases of orthotopic ARCaPM tumors in mice. In kind it is in vivo, mouse. The settings on record: orthotopic ARCaPM (ARCaP) model; bone and soft tissue metastases. The protocol:
The spontaneous metastasis of ARCaPM tumor cells stably transduced with an AsRed2 red fluorescence protein (RFP) (Clontech, Mountain View, Calif.) by injecting these cells orthotopically in mice was studied. ARCaPM-RFP metastasis was determined by the same procedures described above for capturing cyanine dye tumor imaging after IR-783 i.p. injection at a dose of 10 nmol/20 g. In addition, at the time of sacrifice both frozen and paraffin embedded tissue sections were obtained for RFP and confocal fluorescence imaging. Positive identification of ARCaPM-RFP cells was accomplished by fluorescence microscopy and validated by subculturing ARCaPM-RFP cells directly from bone metastasis tissue specimens.

For a further data set, the system named is Apc^Min/+ mouse adenoma. The experiment in a line: Detection of intestinal neoplasia in Apc^Min/+ mice. In kind it is in vivo. The settings on record: IR-783 i.p. 10 nmol/20 g. The protocol:
The uptake of cyanine dyes by the TRAMP mouse prostate model and the Apc^Min/+ mouse-adenoma model (obtained from The Jackson Laboratory, Bar Harbor, Me.) was assessed by a similar protocol as described above. We also utilized the Olympus OV100 imaging system to detect adenoma in the Apc^Min/+ mouse model. In brief, mice were injected intraperitoneally with IR-783 dye at a dose of 10 nmol/20 g body weight and animals were subjected to total body cyanine dye imaging as described above. Animals were sacrificed at 48 hrs after dye administration and tumors were dissected and subjected to NIR imaging. The presence of tumor cells in tissue specimens was confirmed by histopathologic analysis.

The next data set deals with ARCaPM tumor. The experiment in a line: Dye biodistribution in ARCaPM tumor-bearing mice. In kind it is in vivo, mouse. An excerpt:
To assess tissue distribution of these dyes, athymic mice without tumor implantation were sacrificed at 0, 6 and 80 hrs (N=3 each) after i.v. injection of IR-783 dye at a dose of 10 nmol/20 g. Dissected organs were subjected to NIR imaging by a Kodak Imaging Station 4000 MM. In another study the mice bearing orthotopic ARCaPM tumors were subjected to NIR imaging at 0.5, 24, 48, 72 and 96 hrs after IR-783 i.v. administration at a dose of 10 nmol/20 g. In some cases, we also assessed the biodistribution of NIR dye by a spectral method in tissues harvested from athymic mice bearing subcutaneous ARCaPM tumors (N=6). Tumors and normal host organs were homogenized in PBS, centrifuged at 15,000×g for 15 minutes to recover the supernatant fraction after the mice were injected i.p. with IR-783 at a dose of 10 nmol/20 g. The presence of the organic dyes (parental IR-783 and its metabolites) in tissues was estimated spectrophotometrically at an emission wavelength of 820 nm by a PTI Near Infrared Fluorometer QuantaMaster™ 50 (PTI, Birmingham, N.J.) equipped with a 75-watt xenon arc lamp under 500 to 1700 nm InGaAs detector using known concentrations of IR-783 as the standard (28). In other cases, tumor tissues harvested from mice were stored in formalin from 1 week to 3 months, and fluorescence images were obtained and compared.

A short description of data set [2]: Systemic toxicity of IR-783 in C57BL/6 mice. In kind it is in vivo, mouse. To be noted: normal C57BL/6 mice. The procedure:
The systemic toxicity of IR-783 was investigated in C57BL/6 mice (National Cancer Institute, Frederick, Md.) by injecting the dye by an i.p. route. The mice (N=8 per group) were subdivided into 4 groups and received PBS as control and IR-783 i.p. injection daily at the following doses: 0.375 mg/kg (imaging dose), 3.75 mg/kg and 37.5 mg/kg. […] The histomorphologic appearance of their vital organs was assessed at the time of sacrifice.

Data set [3] has as its system human renal tumor tissues. As to the kind of experiment: In vitro fluorescence imaging of freshly harvested human renal tumor tissues. In kind it is cell-based. To be noted: fresh nephrectomy specimens; 20 µM dye, 37° C., 30 minutes. The procedure:
Kidney tumor tissue samples were collected from 5 patients immediately after tumor nephrectomy according to an Emory approved IRB protocol. All 5 patients had histologically confirmed renal cell carcinoma of the clear cell type. The tissues were excised from tumor area, normal area and the area of tumor and normal adjacent on the kidney removed. All above procedures were conducted on ice and the excised tissues were stored at 4° C. Each incised tissue was cut into three pieces and were incubated with 20 µM IR-783 dye, 20 µM IR-780 and PBS, respectively, at 37° C. for 30 minutes. The dye solutions were removed and the tissues were washed five times by PBS. Optical imaging was done using Kodak Imaging Station Imaging System (see above).
To determine dye uptake in tissues, tissues cut from incised kidney samples (described above) tumor were placed in OTC medium and frozen at −80° C. These frozen tissues were retrieved for histopathologic sections cut to 5 Lm thickness for pathologic observation under a confocal microscope as described above.

For the next data set, the system named is ARCaPM cells. As to the kind of experiment: Detection of prostate cancer cells in human blood. In kind it is cell-based. The procedure:
An experimental model of evaluating human prostate cancer cells in blood was developed. In brief, heparinized whole blood from human volunteers was collected according to an Emory University approved IRB protocol. A known number of human prostate cancer cells (10-1,000) were added to 1 ml of whole blood, mixed gently with 20 μM IR-783 and incubated for 30 minutes at 37° C. The mononuclear cells and cancer cells were recovered by gradient centrifugation using Histopaque-1077 (Sigma, St. Louis, Mo.). The isolated live cells were observed under a confocal fluorescence microscope.

Data set [4] is described as follows: Physicochemical properties of the dye.
For data set [5] the following is noted: aqueous media; cited from earlier work.

“Also recorded” adds a separate entry of the source. A value given as a limit tells only on which side of the number the result lay.

For “2-[2-[2-Chloro-3-[2-[1,3-dihydro-3,3-dimethyl-1-(4-sulfobutyl)-2H-indol-2-ylidene]-ethylidene]-1-cyclohexen-1-yl]-ethenyl]-3,3-dimethyl-1-(4-sulfobutyl)-3H-indolium [IR-783]”, in data set [1], the “detection of metastases by NIR imaging” value was “highly effective in localizing tumors cells in soft tissues and in bone; also recorded: both the primary tumor and the metastases in mouse tibia/femur were detected; also recorded: signals attained in IR-783 imaging reflect metastases of the orthotopic ARCaPM tumor”. Besides, the “detection of tumor (adenoma)” value with Apc^Min/+ mouse adenoma is “could detect tumor”. Besides, the “dye signal in tumor tissue” value with ARCaPM tumor (24 hrs after dye, ARCaPM tumor, in vivo and ex vivo imaging) is “accumulate in tumor tissues; also recorded: strong signals”. Further, the “signal to noise ratios in tumor specimens” value in the data set with ARCaPM tumor (in vivo whole body and ex vivo analysis) is given as “exceeding 25”. Besides, the “apparent concentration of dye and its metabolites in tumors versus normal tissues” value in the data set with ARCaPM tumor (light emission intensity at 820 nm, P<0.05, 3 determinations) was ~10 fold. For the same substance, in the data set with ARCaPM tumor (liver, lung, heart, spleen and kidneys), the “signals in normal organs” value is listed as “very low signals”. In addition, in the data set with ARCaPM tumor (orthotopic ARCaPM tumor, i.v. 10 nmol/20 g), the “time at which tumors still retained dye” value is ≥ 4 days. Besides, in data set [2], the “effect on body weights” value was “did not affect body weights” and the “histopathology of vital organs at the time of sacrifice” value is given as “No abnormal histopathology”. The systemic toxicity result in data set [2] (i.p. daily 0.375, 3.75 and 37.5 mg/kg, one month) is reported as “no systemic toxicity”. Besides, in data set [3], the “dye uptake in human renal tumor tissue” value is listed as “can be taken up; also recorded: significant uptake; also recorded: strong IR-783 uptake”; the “dye uptake in normal kidney tissue” value was “substantial low uptake; also recorded: undetectable; also recorded: not in normal kidney tissues”; the “signal in tumor tissues compared with IR-780 and PBS” value was “stronger signals in tumor tissues than the IR-780 and PBS group”. Also, the “fewest cancer cells detected in whole blood” value in the data set on ARCaPM cells (ARCaPM cells (10 to 1,000) added to 1 ml whole blood) is reported as 10 cancer cells per milliliter. Also, the “visualization / dye uptake of cancer cells mixed with human blood” value in the data set with ARCaPM cells (ARCaPM cells, 20 μM IR-783, 30 minutes, 37° C.) was “clearly visualized; also recorded: Significant uptake and retention”. Besides, the “signal in mononuclear cells” value in the data set on ARCaPM cells (human blood, 20 μM IR-783) was “hardly showed any signals”. Further, in data set [4], the photostability result was “relatively photostable” and the water solubility result was “water-soluble”. Also, in data set [5], the maximum absorption is 782 nm.
